According to patent US9358220B2, “Method of treating acne” (THESAN PHARMACEUTICALS, INC., priority 2008, dated 2016):
Like-named read-outs stand apart in the source and are kept apart here.

How the values were obtained:
AhR [1] = target: T1, AhR (Homo sapiens, UniProt P35869); test: AhR activation test, luciferase reporter plox-XRE TATA-Luc in HEP G2 cells; assay type: cell-based; parameters: endogenous in cells; host or cells: Hep G2 cells transduced with the reporter lentivector plox-XRE TATA-Luc; details: for AhR percentage activation compared to 0.01 μM TCDD: HEP G2 cells, most active concentration in the range tested
T1 sequence (P35869 11-848): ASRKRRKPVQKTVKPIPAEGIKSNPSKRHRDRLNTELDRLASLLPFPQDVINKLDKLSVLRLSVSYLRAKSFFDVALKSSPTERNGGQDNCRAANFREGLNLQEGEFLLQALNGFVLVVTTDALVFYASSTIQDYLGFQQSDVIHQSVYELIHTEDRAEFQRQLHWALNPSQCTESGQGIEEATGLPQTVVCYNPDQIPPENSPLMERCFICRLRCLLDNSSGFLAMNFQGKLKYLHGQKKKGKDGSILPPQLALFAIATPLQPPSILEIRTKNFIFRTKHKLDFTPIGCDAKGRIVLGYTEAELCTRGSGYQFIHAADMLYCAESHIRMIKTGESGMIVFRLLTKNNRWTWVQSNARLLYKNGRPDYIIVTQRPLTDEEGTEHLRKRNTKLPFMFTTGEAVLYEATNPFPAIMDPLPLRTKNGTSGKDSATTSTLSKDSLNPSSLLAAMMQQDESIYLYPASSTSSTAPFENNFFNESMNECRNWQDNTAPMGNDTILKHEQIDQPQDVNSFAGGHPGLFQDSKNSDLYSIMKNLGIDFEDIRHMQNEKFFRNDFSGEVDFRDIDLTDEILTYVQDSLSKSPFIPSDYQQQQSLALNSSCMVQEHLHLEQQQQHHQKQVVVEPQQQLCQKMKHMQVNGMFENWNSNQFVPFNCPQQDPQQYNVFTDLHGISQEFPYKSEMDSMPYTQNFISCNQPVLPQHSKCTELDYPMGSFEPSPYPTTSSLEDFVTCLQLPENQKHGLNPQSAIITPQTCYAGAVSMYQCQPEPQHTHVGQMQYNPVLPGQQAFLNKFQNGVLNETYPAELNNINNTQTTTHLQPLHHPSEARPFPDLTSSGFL
Method: (§1) The Hep G2 cells are cultured in DMEM (Gibco)+10% fetal bovine serum+penicillin+streptomycin, the NHKs in keratinocyte SFM medium (Gibco)+penicillin+streptomycin. At DO, the Hep G2 cells are seeded into 12-well plates in a proportion of approximately 30 000 cells/cm^2. The NHKs are seeded into 6-well plates in a proportion of approximately 15 000 cells/cm^2. After 24 h, the medium is replaced with fresh medium and the cells are transduced with the lentivector plox-XRE TATA-Luc. After 48 h, the cells are subcultured and maintained in culture, and tested for their reactivity to TCDD.
The tests are carried out using the luciferase reporter assay system kit from Promega. At DO, the cells are seeded at a density of approximately 60% confluence, and then treated, at Dl, with the test substance diluted to various concentrations in the appropriate culture medium. At D2, the cells are lysed in CLB buffer, and the lysate is clarified by centrifugation for 5 min at 10 000 g. The luciferase activity is measured in 20 microliters of lysate as recommended by the supplier, using the luminoskan luminometer (Thermo).

CYPlAl [2] = test: CYP1A1 activity test (P450-GLO assay) in Hep G2 cells
Method: The tests are carried out using the P450-GLO assay kit from Promega. At D0, the cells are seeded at a density of approximately 60% confluence, and then treated at Dl with the test substance diluted to various concentrations in the appropriate culture medium. At D2, the CYPlAl activity is measured as recommended by the supplier, using the nonlytic protocol on a cell monolayer.

human keratinocytes = test: Wound healing in vitro on a culture of human keratinocytes (migration index); assay type: cell-based
Method: The wound is induced by means of an incision with a yellow micropipette tip (10-200 μl). Migration index value obtained with the ligand/that of the control without ligand. […] This indicates an activity of the AhR activation pathway on the migration of keratinocytes which is found in vivo in humans (FIGS. 5, 6, 10).

sebaceous glands [3] = test: Sebaceous glands in the ear skin of C57BL/6 mice after topical application; assay type: in vivo
Excerpt: The effect on the sebaceous glands can be reproduced in animals by topical application of TCDD. A 95% reduction in the number of sebaceous glands can be observed in C57BL/6 mice after 45 days of application of 2 mcg/ml TCDD (FIG. 2).
To reproduce the useful effect of TCDD, in a therapeutic reduction approach the reduction in the surface area of the sebaceous glands in the ears of C57BL/6 mice treated once a day for 45 d with various ligands according to the invention can be studied. The surface area of the sebaceous glands is measured on three serial sections per animal. A reduction of greater than 40% is sought, and obtained here with a concentration, a treatment time and an application frequency considered to be minimal. Isotretinoin is shown by way of example of a product used for the topical and systemic treatment of acne.
The topical application of an AhR ligand such as 6-formylindolo[3,2-b]carbazole (FICZ), at a concentration of 100 mcg/ml, makes it possible to obtain a significant decrease in the sebaceous glands, of the order of 40%. Other ligands according to the invention (see FIGS. 14, 15 and 17) also lead to a decrease in the surface area of the sebaceous glands.

AhR [4] = target: T1, AhR; test: Test for potentiation by bacterial flora: AhR activation in HEP G2 cells with skin bacteria extracts and tryptophan; assay type: cell-based; parameters: endogenous in cells; host or cells: Hep G2 cells transduced with the reporter lentivector plox-XRE TATA-Luc
Method: The activation value 25.00 on the Y-axis corresponds to ⅙ of the AhR stimulation by 10 nM TCDD in this same system (157.00).

human skin [5] = test: Messenger RNA expression (RT PCR, transcriptome) in human skin exposed to TCDD; assay type: in vivo
Excerpt: This observation identifies a new target for medicaments aimed at modulating sebaceous function, a concept exemplified here by AhR activation.
The expression of the messenger RNAs of vascular endothelial growth factors (VEGFs) and of their receptors is increased in skin exposed to TCDD.
The expression of the messenger RNAs of the various estrogen receptors ESRR and ER, of the estrogen responsive finger protein (EFP) ligase and of the estrogen-producing aromatase enzyme is increased in skin exposed to TCDD.

human skin [6] = test: Estradiol (E2) concentration in human skin exposed to TCDD by ELISA; assay type: in vivo; details: human skin containing 1800 ppt of TCDD versus controls
dermabrasions = test: Healing of superficial epidermal-dermal wounds (dermabrasions) in human skin containing TCDD; assay type: in vivo
Excerpt: Thus, the time to complete healing is reduced from 9.3 to 5 days.

[7] = human organism; cited from earlier work
sebaceous glands [8] = test: Sebaceous glands in biopsies of human skin exposed to TCDD (histology); assay type: in vivo; details: human skin containing 930 to 2900 ppt of TCDD; 62 biopsies, 620 sections
Method: The sebaceous glands, which are present in large numbers in normal human skin, disappear during exposure to toxic doses of TCDD. […] Thus, on the face of an adult, the number is between 400 and 900/cm^2.
For each site, 3 to 10 skin biopsies were analyzed after fixing with formol and staining with hematin-eosin. At least 10 sections per block were analyzed.

AhR [9] = target: T1, AhR; test: AhR activation test, luciferase reporter plox-XRE TATA-Luc in normal human keratinocytes; assay type: cell-based; parameters: endogenous in cells; host or cells: normal human keratinocytes (NHKs) transduced with the reporter lentivector plox-XRE TATA-Luc; details: NHK-plox-XRE TATA-Luc cells, 10 nM, 24 h
Method: FIGS. 14, 15 and 16 show AhR activation in HEP G2 cells and normal human keratinocytes (NHKs) stably transfected with the lentivector plox-XRE TATA-Luc.
as §1
The tests are carried out using the luciferase reporter assay system kit from Promega. […] At D2, the cells are lysed in CLB buffer, and the lysate is clarified by centrifugation for 5 min at 10 000 g. The luciferase activity is measured in 20 microliters of lysate as recommended by the supplier, using the luminoskan luminometer (Thermo).
Similar results are noted.

CYPlAl [10] = test: CYP1A1 activity test (P450-GLO assay) in NHK cells; assay type: cell-based, human; details: 10 nM, 24 h
[11] = test system: staphylococcus sp, P. acnes; test: Bacterial colonization of human skin exposed to TCDD (CFU per cm^2); assay type: in vivo
chronic wounds = test: Chronic human leg wounds with dermatoporosis treated with tryptophan gel; assay type: in vivo
seborrhea = test: Sebumetric measurement of casual sebum levels on the face of hyperseborrheic men; assay type: in vivo, human; details: gel containing 1% tryptophan on the face of two hyperseborrheic men for 3 weeks
Excerpt: The effect shown in FIG. 16, where it is seen that Propionibacterium acnes (PA) generates an AhR activation, which is highly accentuated by the addition of tryptophan, can be taken advantage of in the context of this invention. This is because PA is one of the key players in sebaceous gland diseases, and it is present in large amounts in facial skin. It could therefore contribute to producing therapeutic amounts of AhR ligands in the presence of tryptophan, or also other aromatic amino acids such as tyrosine and phenylalanine. In order to explore the relevance of this approach, the applicant carried out a test by applying a gel containing 1% tryptophan to the face of two hyperseborrheic men for 3 weeks, and observed a decrease in the seborrhea which could be evaluated at 40% of the starting value using sebumetric measurement of the casual sebum levels.

[12] = human skin containing 1800 ppt of TCDD versus controls

CCOC(=O)c1cc2c(cn1)[nH]c1ccccc12 [B-CCE, Ethyl β-carboline-3-carboxylate]
AhR percentage activation compared to 0.01 μM TCDD (AhR [1]): greatest activities | induction of CYPlAl activity by ligands according to the invention (CYPlAl [2]; FIG. 17, cell type not stated for the ligands): induction of this AhR-dependent biological activity

O=Cc1c2c(cc3c1=Nc1ccccc1-3)=Nc1ccccc1-2 [FICZ, 6-Formylindolo[3,2-b]carbazole]
AhR percentage activation compared to 0.01 μM TCDD (AhR [1]): greatest activities | effect on healing at the highest concentrations (human keratinocytes): a decrease in the effect, or even an inhibition of healing | stimulation of healing (migration index) (human keratinocytes; μM concentrations): strong stimulation of healing | decrease in the sebaceous glands (sebaceous glands [3]; C57BL/6 mice ears, topical 100 mcg/ml, once a day for 45 d): ~40%

Clc1cc2c(cc1Cl)Oc1cc(Cl)c(Cl)cc1O2 [TCDD, 2,3,7,8-tetrachlorodibenzo-p-dioxin]
induction of the luciferase activity (AhR [1]; Hep G2-plox-XRE TATA-Luc cells, 10 nM, 24 h): 100 fold | AhR stimulation (activation value on the Y-axis) (AhR [4]; 10 nM): 157.00 | expression of messenger RNAs of estrogen receptors ESRR and ER, EFP ligase and aromatase (human skin [5]; [12]): increased | expression of messenger RNAs of vascular endothelial growth factors (VEGFs) and their receptors (human skin [5]; [12]): increased | hyaluronate in the dermis (human skin [5]; human skin exposed to TCDD): very substantial accumulation of hyaluronate in the dermis | messenger RNAs of sebaceous lipogenesis enzymes (human skin [5]; human skin exposed to TCDD, whole transcriptome): considerable reduction | effect on healing at the highest concentrations (human keratinocytes): a decrease in the effect, or even an inhibition of healing | stimulation of healing (migration index) (human keratinocytes; nM concentrations): strong stimulation of healing | reduction in the number of sebaceous glands (sebaceous glands [3]; C57BL/6 mice, topical 2 mcg/ml, 45 days): 95% | concentration of estradiol (E2) in skin (human skin [6]): increase in the concentration of estradiol | induction of the CYPlAl activity (CYPlAl [2]; Hep G2 cells, 10 nM, 24 h): 250 fold | time in which epidermal-dermal wounds are covered (dermabrasions; human exposed to TCDD, average healing time ordinarily 10 days): 3 days | time to complete healing of dermabrasions (dermabrasions; human skin with 930 to 2900 ppt TCDD, controls 9.3 days): 5 days | half-life in human tissues [7]: 4-12 years | sebaceous glands observed in skin biopsies (sebaceous glands [8]): no sebaceous gland could be observed | induction of the luciferase activity (AhR [9]): 10 fold | induction of the CYPlAl activity (CYPlAl [10]): 20 fold | P. acnes colonization of skin ([11]; human skin exposed to TCDD): same effect is observed | colonization of skin by staphylococcus sp (CFU per cm^2) ([11]; human with more than 900 ppt of TCDD in the skin, 4 samples 1 month apart): very greatly decreased

COc1ccccc1OCCNCC(O)COc1cccc2[nH]c3ccccc3c12 (stereo not shown) [carvedilol, Carvedilol]
induction of CYPlAl activity by ligands according to the invention (CYPlAl [2]): induction of this AhR-dependent biological activity

O=c1cc(O)cc(/C=C/c2ccc(O)c(O)c2)o1 [hispidin, Hispidin]
AhR percentage activation compared to 0.01 μM TCDD (AhR [1]): greatest activities

O=c1c2ccccc2nc2n1CCc1c-2[nH]c2ccccc12 [rutaecarpine, Rutaecarpine]
induction of CYPlAl activity by ligands according to the invention (CYPlAl [2]): induction of this AhR-dependent biological activity

N[C@@H](Cc1c[nH]c2ccccc12)C(=O)O [tryptophan]
AhR percentage activation compared to 0.01 μM TCDD (AhR [1]): greatest activities | AhR activation with bacterial extract on addition of tryptophan (AhR [4]; in particular with P. acnes extract): an increase in the activation is observed | dermatoporotic skin around the wound (chronic wounds): thickening of the dermatoporotic skin around the wound | healing of chronic wounds (chronic wounds; series of 10 cases of chronic wounds on legs): Contraction of chronic wounds and the development of epithelial healing | stimulation of healing (migration index) (human keratinocytes; μM concentrations): strong stimulation of healing | decrease in the seborrhea (casual sebum levels), of the starting value (seborrhea): 40%
